Data on 25 compounds can be found in ChEMBL document CHEMBL5131442, “Design and synthesis of Osthole-based compounds as potential Nrf2 agonists” (Bioorg Med Chem Lett, 2022).

Assay [1] has as its target T1, Nuclear factor erythroid 2-related factor 2 (Homo sapiens) (UniProt Q16236).
T1 sequence (whole entry): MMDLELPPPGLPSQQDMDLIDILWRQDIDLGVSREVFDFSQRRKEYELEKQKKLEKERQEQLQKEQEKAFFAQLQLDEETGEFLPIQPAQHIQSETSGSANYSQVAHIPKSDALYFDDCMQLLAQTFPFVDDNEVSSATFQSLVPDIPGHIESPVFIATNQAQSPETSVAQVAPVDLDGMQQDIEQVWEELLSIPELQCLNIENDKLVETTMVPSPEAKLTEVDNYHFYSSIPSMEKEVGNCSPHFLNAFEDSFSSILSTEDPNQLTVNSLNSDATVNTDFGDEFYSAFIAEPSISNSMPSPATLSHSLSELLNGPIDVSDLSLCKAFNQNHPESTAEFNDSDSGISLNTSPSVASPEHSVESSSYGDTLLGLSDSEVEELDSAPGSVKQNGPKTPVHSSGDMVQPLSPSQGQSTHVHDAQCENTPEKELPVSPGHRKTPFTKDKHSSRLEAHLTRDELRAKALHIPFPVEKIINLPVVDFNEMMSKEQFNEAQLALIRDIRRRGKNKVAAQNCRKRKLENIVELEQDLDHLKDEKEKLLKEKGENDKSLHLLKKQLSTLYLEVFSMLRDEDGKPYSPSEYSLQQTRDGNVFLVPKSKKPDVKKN
Description: Agonist activity at Nrf2 (unknown origin) at 20 uM by dual-luciferase reporter gene assay. Conditions: filed as agonist.

Assay [2] concerns the target T2, Nuclear factor erythroid 2-related factor 2 (Homo sapiens, UniProt Q16236).
T2 sequence (Q16236 whole entry): T1 sequence (whole entry)
As to the kind of experiment: Activation of Nrf2 in HEK293T cells. In kind it is cell-based.

Assay [3] addresses Keap1/Nrf2 (Homo sapiens) (UniProt Q16236+Q14145). Description: Inhibition of Keap1-Nrf2 protein-protein interaction in human A549 cells assessed as reduction in Nrf2 ubiquitination by immunoprecipitation analysis. In kind it is cell-based.
In assay [4] the target is Kelch-like ECH-associated protein 1 (Homo sapiens) (UniProt Q14145). As to the kind of experiment: Binding affinity to Keap1 in human A549 cells assessed as thermal stabilization by measuring change in melting temperature at 10 uM by cellular thermal shift assay. In kind it is cell-based.
Assay [5] deals with T1, Nuclear factor erythroid 2-related factor 2 (Homo sapiens). Description: Agonist activity at Nrf2 (unknown origin) at 10 uM by dual-luciferase reporter gene assay. Conditions: filed as agonist.

The source made the active and inactive calls. The rule behind the calls is not given here.

Chain of Kelch-like ECH-associated protein 1 (Homo sapiens) (Q14145 whole entry): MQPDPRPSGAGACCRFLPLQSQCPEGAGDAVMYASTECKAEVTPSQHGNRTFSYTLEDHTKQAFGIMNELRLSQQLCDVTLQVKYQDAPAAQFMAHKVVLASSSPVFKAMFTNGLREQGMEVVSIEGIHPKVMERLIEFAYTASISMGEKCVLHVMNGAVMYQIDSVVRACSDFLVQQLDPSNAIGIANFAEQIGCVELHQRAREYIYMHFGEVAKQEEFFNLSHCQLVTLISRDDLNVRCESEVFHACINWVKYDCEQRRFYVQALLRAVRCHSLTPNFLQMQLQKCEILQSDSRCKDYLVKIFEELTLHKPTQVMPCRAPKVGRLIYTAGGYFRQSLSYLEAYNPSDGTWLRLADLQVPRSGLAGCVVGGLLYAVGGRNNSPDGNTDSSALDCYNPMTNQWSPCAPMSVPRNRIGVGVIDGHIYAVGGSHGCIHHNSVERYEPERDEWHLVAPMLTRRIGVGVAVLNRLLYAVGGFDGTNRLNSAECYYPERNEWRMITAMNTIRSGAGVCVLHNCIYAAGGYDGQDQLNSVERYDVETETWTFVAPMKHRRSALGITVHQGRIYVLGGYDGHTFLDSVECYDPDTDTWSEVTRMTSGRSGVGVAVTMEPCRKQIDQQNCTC
Chain of Keap1/Nrf2 (Homo sapiens) (Q14145 whole entry, looked up, one chain of several): as the sequence (Q14145 whole entry) above

As for `CC(C)=CCc1c(OC(=O)Cc2c[nH]c3ccccc23)ccc2ccc(=O)oc12`, the fold change (FC) in assay [1] amounted to 1.55.

Turning to `COc1ccc2c(CC(=O)Oc3ccc4ccc(=O)oc4c3CC=C(C)C)c[nH]c2c1`, the fold change (FC) in assay [1] turned out to be 1.51.

With `COc1ccc2[nH]cc(CCNC(=O)Oc3ccc4ccc(=O)oc4c3CC=C(C)C)c2c1`, in assay [1], the fold change (FC) is 0.98.

As for `CC1(C)CCc2c(c(Br)cc3cc(-c4ccc(F)cc4)c(=O)oc23)O1`, the fold change (FC) in assay [1] stood at 1.26.

`CC1(C)CCc2c(c(Br)cc3cc(-c4ccccc4)c(=O)oc23)O1`: the fold change (FC) in assay [1] turned out to be 2.57. This compound also gave an EC50 in assay [2] of 2.9 µM. Also, in assay [3], the inhibition result is “Active”. Moreover, in assay [4], the result was Active.

On to `CC(C)=CCc1c(OC(=O)NCCc2c[nH]c3ccc(C)cc23)ccc2ccc(=O)oc12`, for which, in assay [1], the fold change (FC) was 0.95.

On to `CC(C)=CCc1c(OC(=O)Cc2c[nH]c3ccc(Br)cc23)ccc2ccc(=O)oc12`, for which the fold change (FC) in assay [1] was determined as 1.41.

For `COc1ccc2c(CC(C)NC(=O)Oc3ccc4ccc(=O)oc4c3CC=C(C)C)c[nH]c2c1` (centres undefined), the fold change (FC) in assay [1] turned out to be 0.73.

For the compound `CC(C)=CCc1c(OC(=O)Cc2c(C)[nH]c3ccccc23)ccc2ccc(=O)oc12`, the fold change (FC) in assay [1] came out at 1.51.

As for `Cc1ccc(-c2cc3cc(Br)c4c(c3oc2=O)CCC(C)(C)O4)cc1`, in assay [1], the fold change (FC) amounted to 1.61.

In the case of `CC1(C)CCc2c(c(Br)cc3cc(-c4cccc(C(F)(F)F)c4)c(=O)oc23)O1`, the fold change (FC) in assay [1] stood at 1.52.

Regarding `CC1(C)CCc2c(c(Br)cc3cc(-c4ccc(C(F)(F)F)cc4)c(=O)oc23)O1`, the fold change (FC) in assay [1] is 2.04. This compound registered an EC50 in assay [2] of 4.55 µM.

Regarding `CC(C)=CCc1c(OC(=O)NCCc2c[nH]c3ccccc23)ccc2ccc(=O)oc12`, in assay [1], the fold change (FC) was 0.95.

As for `COc1cccc(-c2cc3cc(Br)c4c(c3oc2=O)CCC(C)(C)O4)c1`, the fold change (FC) in assay [1] amounted to 1.41.

As to `COc1ccc(-c2cc3cc(Br)c4c(c3oc2=O)CCC(C)(C)O4)cc1`, the fold change (FC) in assay [1] amounted to 1.53.

As for `CC(C)=CCc1c(OC(=O)NCCc2c(C)[nH]c3ccccc23)ccc2ccc(=O)oc12`, in assay [1], the fold change (FC) worked out at 0.61.

`COc1ccc2[nH]cc(CC(=O)Oc3ccc4ccc(=O)oc4c3CC=C(C)C)c2c1`: in assay [1], the fold change (FC) turned out to be 1.59.

`COc1ccccc1-c1cc2cc(Br)c3c(c2oc1=O)CCC(C)(C)O3`: the fold change (FC) in assay [1] turned out to be 1.58.

As for `COc1ccc2[nH]c(C)c(CC(=O)Oc3ccc4ccc(=O)oc4c3CC=C(C)C)c2c1`, in assay [1], the fold change (FC) is 1.56.

Turning to `CC1(C)CCc2c(c(Br)cc3cc(-c4ccc(OC(F)(F)F)cc4)c(=O)oc23)O1`, the fold change (FC) in assay [1] worked out at 1.69.

For `CC(C)=CCc1c(OC(=O)Cc2c[nH]c3cc(Cl)ccc23)ccc2ccc(=O)oc12`, in assay [1], the fold change (FC) came to 1.65.

For `COc1ccc2ccc(=O)oc2c1CC=C(C)C`, the fold change (FC) in assay [1] stood at 1.18.

`CC(C)=CCc1c(OC(=O)Cc2c[nH]c3ccc(C)cc23)ccc2ccc(=O)oc12`: the fold change (FC) in assay [1] was 1.51.

`CC(C)=CCc1c(OC(=O)NCCc2c[nH]c3ccc(Cl)cc23)ccc2ccc(=O)oc12`: the fold change (FC) in assay [1] came out at 0.79.

For the compound `CC(C)(C)c1cc(O)ccc1O`, the fold change (FC) in assay [5] turned out to be 1.7.
